Experimental data: PubChem BioAssay (NCI)
Where “and” joins values, the source holds several entries; their conditions need not be identical. Identical values can stand only once.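 These data come from cells grown in 96-well plates and exposed to compound for 48 hours at five concentrations. At the GI50, growth is halved. TGI: total growth inhibition.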

Assays:
Assay in all cases: NCI-60 cell line screen, 48 h
[1] = test system: COLO 205 colon
[2] = test system: HCT-116 colon
[3] = test system: MALME-3M melanoma
[4] = test system: MDA-MB-231 breast
[5] = test system: MDA-MB-435
[6] = test system: NCI-H23 lung
[7] = test system: OVCAR-3 ovarian
[8] = test system: OVCAR-5 ovarian

| SMILES | GI50 [1] [µM] | TGI [1] | GI50 [2] [µM] | TGI [2] | GI50 [3] [µM] | TGI [3] | GI50 [4] [µM] | TGI [4] [µM] | GI50 [5] [µM] | TGI [5] | GI50 [6] [µM] | TGI [6] | GI50 [7] [µM] | TGI [7] | GI50 [8] [µM] | TGI [8] [µM] |
| --- | --- | --- | --- | --- | --- | --- | --- | --- | --- | --- | --- | --- | --- | --- | --- | --- |
| Nc1c(C(=O)Nc2ccccc2)sc2nc3c(cc12)CCCC3 | 1.24 | 13.8 µM | 0.49 | > 100 µM | 0.608 | 95.2 µM | 3.93 | > 100 | 0.172 | 0.415 µM | 1.08 | > 100 µM | 0.481 | 12.3 µM | 18.6 | > 100 |
| COC(=O)C1C2CCCN2OC1(C)CO (centres undefined) |  | > 100 µM |  | > 100 µM |  |  |  | > 100 |  | > 100 µM |  | > 100 µM |  | > 100 µM |  | > 100 |
| CCN(CC)CC(O)C1CCC(c2ccccc2)CC1 (centres undefined) |  | 29.2 µM |  | > 100 µM |  | 32.3 µM |  | 37.6 |  | 40.2 µM |  | > 100 µM |  | > 100 µM |  | 88.9 |
| COC(=O)c1ccc(C2SCC(=O)N2NC(=O)C(O)c2ccccc2)cc1 (centres undefined) | > 100 | > 100 µM | > 100 | > 100 µM | > 100 | > 100 µM | > 100 | > 100 | > 100 | > 100 µM | > 100 | > 100 µM | > 100 | > 100 µM | > 100 | > 100 |
| Cc1ccccc1/C=C1\CN(C(=O)OC(C)(C)C)C/C(=C\c2ccccc2C)C1=O | 2.22 | 5.25 µM | 1.9 | 4.57 µM | 1.81 | 3.6 µM | 3.49 | 12.6 | 2.51 | 5.45 µM | 2.2 | 4.99 µM | 1.85 | 3.65 µM | 2.16 | 4.86 |
| COc1ccc(-c2nocc2-c2cc(OC)c(OC)c(OC)c2)cc1 | 0.0531 | 1.24 µM | 0.0412 | 13.1 µM | 21.6 | 60.7 µM | 0.35 | > 58.4 | 0.0239 | 0.13 µM | 0.445 | > 86.5 µM | 0.0364 | 0.474 µM | 1.38 | > 100 |
| CC(C)[C@@H]1CC[C@@H]2[C@@H]1[C@H](OC(=O)/C=C/c1ccccc1)[C@]1(C(C)C)C[C@@H](OC(=O)CO)[C@@]2(C)O1 | 6.12 | 12.8 µM | 5.79 | 11.3 µM | 5.97 | 11.1 µM | 5.38 | 10.4 | 5.65 | 10.6 µM | 6.88 | 14.1 µM | 6.69 | 11.9 µM | 5.15 | 10.2 |
| O=CC1(C2(C=O)c3ccccc3-c3ccccc32)c2ccccc2-c2ccccc21 |  |  |  |  | 2.68 | 5.94 µM | 2.8 | 6.98 | 1.92 | 4.51 µM | 2.11 | 4.82 µM | 1.4 | 3.39 µM | 3.21 | 6.34 |
| CC/C=C\C/C=C\C[C@H]1C/C=C2/C(=O)C=C[C@H]2C/C=C\CCC(=O)O1 | 3.11 | 6.71 µM | 3.63 | > 14.3 µM | 2.85 | 8.8 µM | 4.65 | > 14.3 | 3.03 | 8.91 µM | 3.03 | 8.31 µM | 2.11 | 5.01 µM | 4.13 | > 14.3 |
| C=C1N(C)c2ccc(Cl)cc2C1(C)C | 2.1 | 4.36 µM | 3.52 | 17.5 µM | 3.32 | 20.5 µM | 16.7 | 57.4 | 3.7 | 23.5 µM | 5.47 | > 100 µM | 4.95 | 38.2 µM | 31 | > 100 |
| S=C(N/N=C(/c1ccccc1)c1ccccn1)Nc1cccc(Cl)c1 | 0.0168 | 2.2 µM and 21.6 µM | 0.00475 | 1.91 µM and 1.76 µM | 0.0169 | 2.22 µM and 5.37 µM |  | 2.27 | 1.09 | 2.95 µM and 4.56 µM | 1.35 | 5.58 µM and 16.8 µM | < 0.001 | 1.98 µM and 4.59 µM | 0.05 | 4.47 |
| O=c1cccc(C#CC#C/C=C/CO)o1 | 2.02 | 3.56 µM | 5.71 | > 100 µM |  |  | 1.87 | 4.03 | 1.99 | 4.69 µM | 1.73 | 3.18 µM | 2.33 | 6.12 µM | 2.09 | 4.34 |
| O=C1C(Cl)=C(Nc2cccc(O)c2)C(=O)N1c1cccc(Cl)c1Cl | 15.3 | 38.9 µM | 11.2 | 23.2 µM | 11.7 | 53.9 µM | 12.3 | 34.2 | 17.9 | 43.1 µM | 14.4 | 34.6 µM |  |  | 22.4 | 57.7 |
| Cc1nn(-c2ccc(Br)cc2)c(C)c1CC(=O)c1cc(O)ccc1O | 16.4 | > 50 µM | 12.6 | > 50 µM |  |  | 5.35 | 15 | 6.92 | > 50 µM | 10.9 | 35.7 µM | 12.9 | 38.8 µM | 16.2 | > 50 |
| O=S(=O)(NCCCNc1cc(-c2cn(-c3ccccc3)nc2-c2cccc(O)c2)ccn1)c1ccc(Cl)cc1 | 1.57 | 3.16 µM | 1.57 | 3.29 µM |  |  | 1.81 | 4.69 | 1.64 | 3.2 µM | 1.64 | 4.98 µM | 1.67 | 3.7 µM | 2.04 | 5.64 |
| O=C(CCl)Nc1ccc2c(c1)C(=O)c1ccc(NC(=O)CCl)cc1C2=O |  |  | 0.199 | 0.768 µM | 0.219 | 0.888 µM | 0.486 | 2.36 | 0.395 | 1.81 µM | 0.253 | 0.834 µM | 0.277 | 0.885 µM | 0.371 | 1.63 |
